Results reported in US11173124B2, “Oral delivery of GLP-1 peptide analogs” (MEDIMMUNE LIMITED, priority 2017, dated 2021).
pEC50: −log10 of the molar value. Starred links: 1 amine or outer side, 2 acyl side, 3 side chain; linkers in the order of their positions; H or OH if unused. Non-standard residues stand in square brackets, D forms with d. Residues, ends and D or L forms follow the SMILES beside them. Groups on a side chain read outwards from the residue. *: point of attachment. γGlu = O=C(O)[C@H](CCC(=O)[*:2])N[*:1]; αMeF = C[C@](N)(Cc1ccccc1)C(=O)O; αMeK = C[C@](N)(CCCCN)C(=O)O; Lauroyl = CCCCCCCCCCCC(=O)*; αMeS = C[C@](N)(CO)C(=O)O; AEEA = NCCOCCOCC(=O)O; Aib = CC(C)(N)C(=O)O

How the values were obtained:
GLP-1 receptor = GLP-1 receptor (Homo sapiens, UniProt P43220); assay: cAMP assay, primary assay as described in WO 2016/198544; assay type: cell-based; details: in vitro potency at the GLP-1 receptor
From the text: The biological activity of a GLP-1 peptide analog can be evaluated, for example, by assessing the ability of the peptide to activate a receptor (e.g., a GLP-1 receptor). Peptide activation of such receptors results in downstream accumulation of cAMP second messenger which can be measured in a functional activity assay.

[1] = Third rat ID infusion study, stabilized peptides vs semaglutide (Example 6); details: in vivo
Protocol: The third rat ID infusion study was performed to compare bioavailability of stabilized peptides MEDI7219 (SEQ ID NO:2) and SEQ ID NO:6 with that of semaglutide, H-His-Aib-[…]AEEAc-AEEAc-γ-Glu-17-carboxyheptadecanoyl)-[…]OH (SEQ ID NO:11), (Novo Nordisk), an un-stabilized GLP-1 peptide analog, that only has Aib in its sequence for protection from circulating DPP-IV peptidases, (Table 7 and FIG. 2B).

[2] = Canine study, MEDI7219 tablets in acid-resistant capsules (Example 13); assay type: in vivo
Protocol: The formulations tested in this study contained the MEDI7219 (SEQ ID NO:2) peptide, whereas the SEQ ID NO:6 peptide was used in tablet formulations for the previous canine study in Example 12. Tablets were placed in acid-resistant capsules (one tablet/capsule) prior to dosing. […] (Table 20). This formulation contained 0.1 mg/kg MEDI7219 (SEQ ID NO:2) peptide and 300 mg total permeation enhancer (PE) consisting of a 1:2 ratio of sodium chenodeoxycholate to propyl gallate. This ratio worked better compared to a 2:1 ratio of these permeation enhancers (Group 9, Table 20). This study also confirmed the utility of Tris base as a pH stabilizer.

[3] = Canine study, MEDI7219 enterically coated tablet, single and repeated dosing (Example 14); assay type: in vivo
Protocol: Tablet optimization was further established in the following canine study. The goals of this study were to evaluate the performance of the group 8 tablet formulation (Example 13, Table 20) as an enterically-coated (EC) tablet and to evaluate repeated dosing of this formulation. A Eudragit formula dissolving at pH 5.5 or above was applied to the tablets as enteric coating. Enterically-coated tablets were administered on day 0 followed by a 1 week wash-out. Following wash-out, animals received additional doses on days 7, 8, 9, 10 and 11.

in vivo = details: beagle, dog, po
From the text: The following materials and methods were used for quantitative measurements of GLP-1 peptide analogs in plasma (e.g., rat or dog plasma) in the Examples below. These methods used a SCIEX 6600 TripleTOF mass spectrometer coupled with a Shimadzu ultra-high performance liquid chromatography (UHPLC). The specificity of the method was ensured by the retention time, the selected mass for Single-Reaction-Monitoring (SRM) mode, and the selected fragment mass in MS/MS (MS^2) mode. […] The analytes of interest were analyzed from plasma, a complex biological matrix. Although protein precipitation using organic solvent can reduce matrix interference, significant background still persists. The high mass accuracy offered by the TripleTOF mass spectrometers further eliminated background noise, thus enhancing signal: noise (S/N) and allowing improved quantification.
The plasma extraction procedure used the following steps: • Samples, standards, and quality controls were incubated until they reached room temperature. They were then incubated at 60° C. for 2 minutes and cooled down to room temperature, vortexed, and spun down. • 70 μL of samples, standards, or quality controls were transferred into a 1 mL 96-well plate. • In each well, 420 uL of Precipitation Solution was added. The plate was sealed and shook for 10 minutes on a plate shaker at 600 rpm. • The plate was centrifuged at 18G, 2500 RFC, 20° C. for 10 minutes. • The plate was carefully removed, and the upper clear supernatant was extracted with a 200 uL multichannel pipette into a new 96-well protein lobind plate. The supernatant was extracted twice for each well, and the supernatants were combined. • The Plate was placed in TurboVap and the extracted supernatant was dried completely with heated (65° C.) Nitrogen gas at 60 Fahrenheit (Fh). • After the plate was completely dry, the plates were covered and incubated at room temperature for at least 30 minutes until the plate returned back to ambient temperature. • 150 μL of Reconstitution solution was added to each well. The plate was covered with a pierceable place seal and shaken at 600 rpm for 10 minutes. • The samples were submitted to the LC-MS/MS on the same day of Preparation
Quantification of the data obtained using the high resolution SCIEX 6600 instrument was then performed as follows: • For the quantification, extracted ion chromatograms (XIC) using 0.2 Da m/z extraction window centered on the accurate mass of each fragment ion were generated. Accurate mass was calculated from the structure of the compound. […] Concentrations of the target analyte in unknown samples were obtained by regression analysis using linear fits of peak areas vs. analyte concentration, weighted 1/(concentration). • The quality of the assay was controlled by the quality control samples. • Either Experiment 1 or Experiment 2 could be used for the quantification of the GLP-1 peptide analogs in high resolution mode.
MEDI7219 (SEQ ID NO:2) formulations were studied in the following canine study, which was designed to compare different tablet delivery systems and peptides in enterically coated tablet formulation compositions delivered orally. […]
The efficacy of sodium caprate as a permeation enhancer was also evaluated.

[4] = Canine study, Na CDC:PG ratios, PE amount and MEDI7219 dose in enterically coated tablets (Example 22, Table 29); assay type: in vivo; details: Beagle dogs, oral enterically coated tablet

GLP-1 receptor, sequence (P43220 24-463): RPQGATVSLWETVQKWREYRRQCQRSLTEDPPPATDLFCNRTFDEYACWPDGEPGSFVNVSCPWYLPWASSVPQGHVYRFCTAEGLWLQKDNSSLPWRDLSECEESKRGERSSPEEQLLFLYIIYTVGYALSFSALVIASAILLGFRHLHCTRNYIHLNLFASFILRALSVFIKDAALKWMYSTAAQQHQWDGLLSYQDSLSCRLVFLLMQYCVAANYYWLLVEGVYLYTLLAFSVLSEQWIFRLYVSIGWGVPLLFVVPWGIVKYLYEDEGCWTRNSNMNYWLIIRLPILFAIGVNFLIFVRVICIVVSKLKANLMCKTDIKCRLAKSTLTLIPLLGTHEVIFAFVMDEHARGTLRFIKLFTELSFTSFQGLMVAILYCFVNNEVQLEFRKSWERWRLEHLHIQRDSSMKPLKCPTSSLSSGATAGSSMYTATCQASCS

Q: With `CCCCCCCCCCCC(=O)N[C@@H](CCC(=O)NCCOCCOCC(=O)NCCOCCOCC(=O)NCCCC[C@H](NC(=O)[C@H](C)NC(=O)[C@@H](NC(=O)[C@](C)(Cc1ccccc1)NC(=O)[C@H](CCC(=O)O)NC(=O)[C@](C)(CCCCN)NC(=O)[C@H](C)NC(=O)[C@H](C)NC(=O)[C@H](CCC(=O)O)NC(=O)CNC(=O)[C@H](CCC(=O)O)NC(=O)[C@H](CC(C)C)NC(=O)[C@H](CCCCNC(=O)COCCOCCNC(=O)COCCOCCNC(=O)CC[C@H](NC(=O)CCCCCCCCCCC)C(=O)O)NC(=O)[C@H](CO)NC(=O)[C@](C)(CO)NC(=O)[C@@H](NC(=O)[C@H](CC(=O)O)NC(=O)[C@H](CO)NC(=O)[C@@H](NC(=O)[C@](C)(Cc1ccccc1)NC(=O)[C@H](CO)NC(=O)CNC(=O)[C@H](CCC(=O)O)NC(=O)C(C)(C)NC(=O)[C@@H](N)Cc1c[nH]cn1)[C@@H](C)O)C(C)C)[C@@H](C)CC)C(=O)N[C@H](C(=O)N[C@H](C(=O)N[C@@H](CCC(=O)O)C(=O)NCC(=O)NCC(N)=O)C(C)C)C(C)C)C(=O)O` [MEDI7219, Free-H-[AIB]-EGS-[αMePhe]-TSDV-[αMeSer]-SK[(PEG2)2-γE-Lauroyl]-LEGEAA-[αMeLys]-E-[αMePhe]-IAK[(PEG2)2-γE-Lauroyl]-VVEGG-amide] (H-H[Aib]EGS[αMeF]TSDV[αMeS]SK([AEEA-AEEA-γGlu-Lauroyl])LEGEAA[αMeK]E[αMeF]IAK([AEEA-AEEA-γGlu-Lauroyl])VVEGG-NH2) as the molecule, how does the pEC50 (GLP-1 receptor) read?
A: Its pEC50 is about 11.41.

Q: What about the F [1] of the same molecule?
A: Its F is “significantly higher absolute bioavailability via ID route than semaglutide”.

Q: And the half-life [1]?
A: Its half-life is 10.4 h.

Q: And the AUC ([1]; iv, 0.01 mg/kg)?
A: Its AUC is 1590 ng·h/mL.

Q: What about the Cmax ([1]; iv, 0.01 mg/kg) of the same molecule?
A: Its Cmax is 264 ng/mL.

Q: And the F ([1]; iv, 0.01 mg/kg)?
A: Its F is 100%.

Q: What about the half-life ([1]; iv, 0.01 mg/kg) of the same molecule?
A: The half-life was 17 h.

Q: What about the F ([2]; Intravenous, 0.01 mg/kg, 0.1 mg/mL in 50 mM Tris, 150 mM Mannitol, 0.02% Polysorbate 80, pH8.0) of the same molecule?
A: The F was 100%.

Q: What about the F ([2]; Oral tablet in capsule, Group 8: 1 mg peptide, 100 mg Na CDC, 200 mg PG) of the same molecule?
A: The F was 10.7%.

Q: What about the F ([2]; Oral tablet in capsule, Group 9: 1 mg peptide, 200 mg Na CDC, 100 mg PG) of the same molecule?
A: The F was 5.0%.

Q: What about the F ([2]; Oral tablet in capsule, Group 12: 1 mg peptide, 33.3 mg Na CDC, 16.6 mg PG (NO TRIS)) of the same molecule?
A: Its F is 0%.

Q: And the F ([3]; Enterically Coated Oral tablet (Eudragit, pH 5.5): 1 mg peptide, 100 mg Na CDC, 200 mg PG)?
A: The F was 4.6%.

Q: What about the F ([3]; Intravenous, 0.05 mg/kg, 0.5 mg/mL in 50 mM Tris, 150 mM mannitol, 0.02% Polysorbate 80, pH8.0) of the same molecule?
A: Its F is 100%.

Q: What about the “bioavailability and PK variability on repeated dosing” value ([3]; enterically coated tablet 1 mg peptide, 100 mg Na CDC, 200 mg PG, day 0, then days 7, 8, 9, 10 and 11) of the same molecule?
A: Its value is “consistent bioavailability with reduced PK variability in subsequent dosing days”.

Q: And the AUC (in vivo)?
A: The AUC was 13500 ng·h/mL.

Q: And the half-life (in vivo)?
A: Its half-life is 10 h.

Q: And the F ([4]; 150 mg Na CDC and no PG)?
A: The F was about 2%.

Q: What about the F ([4]; 150 mg PE, 1:2 Na CDC:PG ratio) of the same molecule?
A: Its F is about 6%.

Q: And the F ([4]; 150 mg PE, 2:1 Na CDC:PG ratio)?
A: The F was about 7%.

Q: What about the F ([4]; 6.5:1 Na CDC:PG ratio (130 mg Na CDC, 20 mg PG)) of the same molecule?
A: Its F is about 4%.
